Test results reported in paper PMC5053523, “In Vitro Antibacterial Activity of Rhodanine Derivatives against Pathogenic Clinical Isolates” (PLoS ONE, 2016).
≈ marks a conversion by molar mass, not a printed value. Read-outs that look alike come from different tables or passages of the source.

How the values were obtained:
[1] = tested on: vancomycin resistant enterococci (VRE) E. faecalis; test: Broth microdilution MIC/MBC, VRE E. faecalis; type: cell-based; conditions: for MIC: read-out: MIC
[2] = tested on: vancomycin resistant enterococci (VRE) E. faecium; test: Broth microdilution MIC/MBC, VRE E. faecium; type: cell-based; conditions: for MIC: read-out: MIC
[3] = tested on: B. cereus; test: Broth microdilution MIC/MBC, B. cereus; type: cell-based; conditions: Bacillus cereus; for MBC: read-out: MBC; for MIC: read-out: MIC
Text: The broth microdilution technique was used, followed by subculturing on agar plates that were rhodanine—free.

[4] = tested on: Bacillus Strains; test: Broth microdilution MIC50/MIC90 and MIC range, Bacillus strains panel; type: cell-based, Bacillus spp.; conditions: 10 Bacillus strains
Text: The broth microdilution technique was used, followed by subculturing on agar plates that were rhodanine—free. […] The MICs reported represent the lowest concentration of each compound necessary to inhibit bacterial growth and the MBCs represent the lowest concentration required to reduce the initial bacterial inoculum by ≥ 99.9%.

[5] = tested on: Escherichia coli O157:H7; test: MIC with/without sub-MIC colistin, Escherichia coli O157:H7; type: cell-based
Protocol: (§1) The MIC of the rhodanines and control antibiotics, in the presence of a sub-inhibitory concentration of colistin or polymixin B nonapeptide (PMBN), against Gram-negative bacteria was evaluated as described before. The antibacterial activity of the rhodanines was further investigated against E. coli SM1411Δ acrAB, a strain that is deficient in the multidrug-resistant AcrAB efflux pump, as described before.

[6] = tested on: Salmonella Typhimurium; test: MIC with/without sub-MIC colistin, Salmonella Typhimurium; type: cell-based
Protocol: as §1

[7] = tested on: Klebsiella pneumoniae; test: MIC with/without sub-MIC colistin, Klebsiella pneumoniae; type: cell-based
Protocol: as §1

[8] = tested on: Pseudomonas aeruginosa; test: MIC with/without sub-MIC colistin, Pseudomonas aeruginosa; type: cell-based
Protocol: as §1

[9] = tested on: Acinetobacter baumannii; test: MIC with/without PMBN, Acinetobacter baumannii; type: cell-based
Protocol: as §1

[10] = tested on: Escherichia coli O157:H7; test: MIC with/without PMBN, Escherichia coli O157:H7; type: cell-based
Protocol: as §1

[11] = tested on: Salmonella Typhimurium; test: MIC with/without PMBN, Salmonella Typhimurium; type: cell-based
Protocol: as §1

[12] = tested on: Pseudomonas aeruginosa; test: MIC with/without PMBN, Pseudomonas aeruginosa; type: cell-based
Protocol: as §1

[13] = tested on: Escherichia coli Δ acrAB; test: MIC against E. coli 1411 and AcrAB efflux pump deficient E. coli SM1411Δ acrAB; type: cell-based
Protocol: as §1

[14] = E. faecalis NR31972 Strain SF 28073
[15] = E. faecium HM 968 Strain ERV102
[16] = E. faecium NR31914 Strain E0120
[17] = E. faecium Patient #1–1 NR-31903
[18] = NRS201, B. cereus NRS 201 NR-2488
[19] = Salmonella enterica, ATCC 700720 / TYPHIMURIUM

**Q.** How did the MBC ([1]; E. faecalis ERV103 HM-934) turn out when `CC(=O)NC[C@H]1CN(c2ccc(N3CCOCC3)c(F)c2)C(=O)O1` [Linezolid, linezolid, reference compound] was run?
**A.** > 64 µM

**Q.** What about the MIC ([1]; E. faecalis ERV103 HM-934) of the same molecule?
**A.** 2 µM (≈ 0.675 µg/mL)

**Q.** And the MBC [1, 14]?
**A.** 32 µM (≈ 10.8 µg/mL)

**Q.** What about the MIC [1, 14] of the same molecule?
**A.** 2 µM (≈ 0.675 µg/mL)

**Q.** And the MBC ([1]; E. faecalis R712 HM-335)?
**A.** 32 µM (≈ 10.8 µg/mL)

**Q.** And the MIC ([1]; E. faecalis R712 HM-335)?
**A.** 2 µM (≈ 0.675 µg/mL)

**Q.** And the MBC ([1]; E. faecalis S613 HM-334)?
**A.** 64 µM (≈ 21.6 µg/mL)

**Q.** And the MIC ([1]; E. faecalis S613 HM-334)?
**A.** 2 µM (≈ 0.675 µg/mL)

**Q.** What about the MBC ([1]; E. faecalis TX0104 HM-201) of the same molecule?
**A.** > 64 µM

**Q.** And the MIC ([1]; E. faecalis TX0104 HM-201)?
**A.** 2 µM (≈ 0.675 µg/mL)

**Q.** And the MBC ([2]; E. faecium E417 HM-965)?
**A.** > 64 µM

**Q.** And the MIC ([2]; E. faecium E417 HM-965)?
**A.** 2 µM (≈ 0.675 µg/mL)

**Q.** What about the MBC ([2]; E. faecium E1071 NR-28978) of the same molecule?
**A.** > 64 µM

**Q.** And the MIC ([2]; E. faecium E1071 NR-28978)?
**A.** 2 µM (≈ 0.675 µg/mL)

**Q.** What about the MBC [2, 15] of the same molecule?
**A.** > 64 µM

**Q.** What about the MIC [2, 15] of the same molecule?
**A.** 2 µM (≈ 0.675 µg/mL)

**Q.** What about the MBC [2, 16] of the same molecule?
**A.** > 64 µM

**Q.** And the MIC [2, 16]?
**A.** 2 µM (≈ 0.675 µg/mL)

**Q.** And the MBC [2, 17]?
**A.** > 64 µM

**Q.** What about the MIC [2, 17] of the same molecule?
**A.** 16 µM (≈ 5.4 µg/mL)

**Q.** And the MBC ([3]; B. cereus BAG1O-2 NR-28582)?
**A.** 2 µM (≈ 0.675 µg/mL)

**Q.** What about the MIC ([3]; B. cereus BAG1O-2 NR-28582) of the same molecule?
**A.** 2 µM (≈ 0.675 µg/mL)

**Q.** And the MBC ([3]; B. cereus BAG1X1-1 NR-28575)?
**A.** 1 µM (≈ 0.337 µg/mL)

**Q.** And the MIC ([3]; B. cereus BAG1X1-1 NR-28575)?
**A.** < 0.5 µM

**Q.** And the MBC ([3]; B. cereus BAG1X2-1 NR-28578)?
**A.** 2 µM (≈ 0.675 µg/mL)

**Q.** What about the MIC ([3]; B. cereus BAG1X2-1 NR-28578) of the same molecule?
**A.** 1 µM (≈ 0.337 µg/mL)

**Q.** And the MBC ([3]; B. cereus G9241 NR-9564)?
**A.** 1 µM (≈ 0.337 µg/mL)

**Q.** What about the MIC ([3]; B. cereus G9241 NR-9564) of the same molecule?
**A.** 1 µM (≈ 0.337 µg/mL)

**Q.** And the MBC ([3]; B. cereus VD014 NR-22141)?
**A.** 4 µM (≈ 1.35 µg/mL)

**Q.** What about the MIC ([3]; B. cereus VD014 NR-22141) of the same molecule?
**A.** 2 µM (≈ 0.675 µg/mL)

**Q.** And the MBC ([3]; B. cereus VD115 NR-22148)?
**A.** 1 µM (≈ 0.337 µg/mL)

**Q.** What about the MIC ([3]; B. cereus VD115 NR-22148) of the same molecule?
**A.** < 0.5 µM

**Q.** What about the MBC ([3]; B. cereus VD148 NR-22150) of the same molecule?
**A.** 2 µM (≈ 0.675 µg/mL)

**Q.** What about the MIC ([3]; B. cereus VD148 NR-22150) of the same molecule?
**A.** 2 µM (≈ 0.675 µg/mL)

**Q.** And the MBC [3, 18]?
**A.** 4 µM (≈ 1.35 µg/mL)

**Q.** What about the MIC [3, 18] of the same molecule?
**A.** 2 µM (≈ 0.675 µg/mL)

**Q.** What about the MIC50 [4] of the same molecule?
**A.** 1 µM (≈ 0.337 µg/mL)

**Q.** And the MIC90 [4]?
**A.** 2 µM (≈ 0.675 µg/mL)

**Q.** And the MIC ([5]; Escherichia coli O157:H7 ATCC 35150, colistin (+) […], read-out: MIC)?
**A.** ≤0.5 µM

**Q.** And the MIC ([5]; Escherichia coli O157:H7 ATCC 700728, colistin (+) […], read-out: MIC)?
**A.** 4 µM (≈ 1.35 µg/mL)

**Q.** What about the MIC ([5]; Escherichia coli, ATCC35150) of the same molecule?
**A.** > 128 µM

**Q.** And the MIC ([5]; Escherichia coli, ATCC700728)?
**A.** > 128 µM

**Q.** And the MIC ([6]; Salmonella Typhimurium ATCC 700720, colistin (+) […], read-out: MIC)?
**A.** >64 µM

**Q.** What about the MIC [6, 19] of the same molecule?
**A.** > 128 µM

**Q.** And the MIC ([7]; Klebsiella pneumoniae ATCC BAA 2146, colistin (+) […])?
**A.** >64 µM

**Q.** What about the MIC ([7]; Klebsiella pneumoniae, BAA2146) of the same molecule?
**A.** > 128 µM

**Q.** What about the MIC ([8]; Pseudomonas aeruginosa ATCC 921, colistin (+) […], read-out: MIC) of the same molecule?
**A.** 64 µM (≈ 21.6 µg/mL)

**Q.** And the MIC ([8]; Pseudomonas aeruginosa, ATCC921)?
**A.** > 128 µM

**Q.** And the MIC ([9]; Acinetobacter baumannii ATCC BAA747, PMBN (+) 4 μg/mL, read-out: MIC)?
**A.** >64 µM

**Q.** And the MIC ([9]; Acinetobacter baumannii ATCC BAA19606, PMBN (+) 4 μg/mL, read-out: MIC)?
**A.** >64 µM

**Q.** And the MIC ([9]; Acinetobacter baumannii, ATCCBAA747)?
**A.** > 128 µM

**Q.** And the MIC ([9]; Acinetobacter baumannii, ATCCBAA19606)?
**A.** > 128 µM

**Q.** What about the MIC ([10]; Escherichia coli O157:H7 ATCC 35150, PMBN (+) 4 μg/mL, read-out: MIC) of the same molecule?
**A.** >256 µM

**Q.** What about the MIC ([10]; Escherichia coli O157:H7 ATCC 700728, PMBN (+) 4 μg/mL, read-out: MIC) of the same molecule?
**A.** 128 µM (≈ 43.2 µg/mL)

**Q.** And the MIC ([10]; Escherichia coli, ATCC35150)?
**A.** > 256 µM

**Q.** What about the MIC ([10]; Escherichia coli, ATCC700728) of the same molecule?
**A.** > 128 µM

**Q.** What about the MIC ([11]; Salmonella Typhimurium ATCC 700720, PMBN (+) 4 μg/mL, read-out: MIC) of the same molecule?
**A.** 64 µM (≈ 21.6 µg/mL)

**Q.** What about the MIC [11, 19] of the same molecule?
**A.** > 128 µM

**Q.** What about the MIC ([12]; Pseudomonas aeruginosa ATCC 9721, PMBN (+) 4 μg/mL, read-out: MIC) of the same molecule?
**A.** 16 µM (≈ 5.4 µg/mL)

**Q.** What about the MIC ([12]; Pseudomonas aeruginosa, ATCC9721) of the same molecule?
**A.** > 128 µM

**Q.** What about the MIC ([13]; E.coli 1411) of the same molecule?
**A.** > 64 µM

**Q.** And the MIC ([13]; E.coli 1411 SM (Δ acrAB, AcrAB efflux pump deficient))?
**A.** 16 µM (≈ 5.4 µg/mL)
